# From paper PMC11274883, “Anticancer Effect of Pt^[sequence], Pt^II5MESS, Pt^II56MESS and Their Platinum(IV)-Dihydroxy Derivatives against Triple-Negative Breast Cancer and Cisplatin-Resistant Colorectal Cancer” (Cancers, 2024)
# How the values were obtained:
# Type in all cases: cell-based
# MCF10A = assay: WST-1 cytotoxicity, 72 h; settings: mean ± SEM
# Procedure: Cells were seeded in 96-well flat-bottom culture plates at a concentration of 1000 cells per well. […] After 72 h, the medium was removed and replaced with new medium. The cell viability reagent WST-1 (10 µL, Roche Diagnostics, Indianapolis, IN, USA) was added to each well. After an hour, the absorbance was measured at 450 nm using a versatile microplate reader (Bio-strategy, Campbellfield, VIC, Australia). Three separate experiments were performed, each with n = 3 replicates. GraphPad prism 10 was used to calculate apparent IC50 values using the nonlinear regression model Y = Bottom + (Top-Bottom)/(1 + 10^(X-LogIC50)) where Top and bottom are plateaus in the y-axis (% survival). The R^2 value of the curve fits ranged from 0.8972 to 0.9794.
# MDA−MB−231 cells [1] = assay: DCFDA cellular ROS detection assay; settings: complexes at IC50, TBHP 20 µM
# Summary of the method: (§1)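 Cells seeded at 2500 cells/well overnight, then loaded with 25 µM DCFH-DA for 45 min. DCF fluorescence (ex/em 485/535 nm, RFU) read at multiple time points; 20 µM TBHP served as positive control. Three independent experiments in triplicate.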
# HT29 cells [2] = assay: DCFDA cellular ROS detection assay; settings: complexes at IC50, TBHP 20 µM
# Summary of the method: as §1
# MDA−MB−231 cells [3] = assay: Western blot protein expression; settings: MDA−MB−231, IC50, 72 h
# Procedure: (§2) Protein extraction was then performed on ice. Media were collected in Eppendorf tubes, and centrifuged at 500× g for 5 min at 4 °C. Meanwhile, 200 µL of lysis RIPA buffer, made up of 150 mM NaCl, 50 mM Tris-HCl, pH 8.0, 0.1% Triton X-100, 0.5% sodium deoxycholate, 0.1% SDS and 1 mM sodium orthovanadate, was added to each well, the cells were scrapped into the buffer, and added to the media-derived pellets. The tubes were placed on the shaker for 10 min at 4 °C. Then, cell extracts were centrifuged at 12,000× g for 15 min at 4 °C, and the supernatants (containing the proteins) were collected. The Bio-Rad-DC protein assay (Bio-Rad, Hercules, CA, USA) was used to assess protein content. Laemmli protein sample buffer (4×) with β-mercaptoethanol (9%) was used to prepare a final protein concentration of 20 µg. The samples were then heated at 100 °C for 5 min. A final volume of 30 µL of each sample was added per well and subjected to SDS-PAGE using Bolt 4–12% Bis-Tris gel (Thermo Fisher, Eugene, OR, USA) at 80 V for 30 min and then 120 V for 60 min with PageRuler™ Prestained Protein or SeeBlue Prestained Protein Ladder (Thermo Fisher, Eugene, OR, USA). Proteins were subsequently transferred to a 0.2 µm PVDF membrane (Amersham, Cytiya) using a semi-dry blot transfer. The membrane was then blocked in 5% BSA in TBST, for 1 h and probed overnight at 4 °C with primary antibodies against several cell proliferation, apoptotic, anti-apoptotic, microtubule and autophagic protein markers listed in Table S7 as per the manufacturer’s protocol. The primary antibody was then removed, washed three times for 10 min with TBST and then membranes were treated with either mouse or rabbit HRP-coupled secondary antibodies (1/3000) for 1 h and 30 min. Protein band detection was then performed using the chemiluminescence ECL kit (Thermo Fisher, Eugene, OR, USA). Blot images were obtained using the Odyssey® FC imaging system (LI-COR Biosciences, Lincoln, NE, USA) and band intensities were quantified relatively to glyceraldehyde-3-phosphate dehydrogenase (GAPDH) and then normalised each replicate gel to its corresponding no treatment control using the ImageJ v1.53t software (National Institutes of Health, Bethesda, MD, USA). Each marker results from the same experiment or parallel experiment where the gels were processed in parallel. Three independent experiments per marker were conducted.
# HT29 cells [4] = assay: Western blot protein expression; settings: HT29, IC50, 72 h
# Procedure: as §2
# [5] = representative blot Figure S30G
# [6] = representative blot Figure S30H
structure (smiles),measurement,setting,value
"N[C@H]1CCCC[C@@H]1N.O=[N+]([O-])[O-].O=[N+]([O-])[O-].[OH-].[OH-].[Pt+4].c1cnc2c(c1)ccc1cccnc12 [[Pt(1,10-phenanthroline)(1S,2S-diaminocyclohexane)(dihydroxy)](NO3)2]",IC50,MCF10A,20.5 ± 1.32 µM
same,ROS production,"MDA−MB−231 cells [1]; MDA−MB−231, 24 h",196.62 RFU
same,ROS production,"MDA−MB−231 cells [1]; MDA−MB−231, 48 h",256.83 RFU
same,ROS production,"MDA−MB−231 cells [1]; MDA−MB−231, 72 h",275.09 RFU
same,ROS production,"HT29 cells [2]; HT29, 24 h",182.77 RFU
same,ROS production,"HT29 cells [2]; HT29, 48 h",217.33 RFU
same,ROS production,"HT29 cells [2]; HT29, 72 h",242.44 RFU
same,β-actin/GAPDH normalized to control (1),MDA−MB−231 cells [3]; representative blot Figure S24A,0.835
same,β-tubulin/GAPDH normalized to control (1),MDA−MB−231 cells [3]; representative blot Figure S24B,0.6552
same,α-tubulin/GAPDH normalized to control (1),MDA−MB−231 cells [3]; representative blot Figure S24C,0.9279
same,p-AKT/AKT/GAPDH normalized to control (1),MDA−MB−231 cells [3]; representative blot Figure S25A,1.063
same,p-ERK/ERK/GAPDH normalized to control (1),MDA−MB−231 cells [3]; representative blot Figure S25B,0.1206
same,p53/GAPDH normalized to control (1),MDA−MB−231 cells [3]; representative blot Figure S25C,1.176
same,p21/GAPDH normalized to control (1),MDA−MB−231 cells [3]; representative blot Figure S25D,1.346
same,Bax/GAPDH normalized to control (1),MDA−MB−231 cells [3]; representative blot Figure S26A,1.398
same,Bcl2/GAPDH normalized to control (1),MDA−MB−231 cells [3]; representative blot Figure S26B,0.7843
same,Cytochrome C/GAPDH normalized to control (1),MDA−MB−231 cells [3]; representative blot Figure S26C,2.378
same,Procaspase 8/GAPDH normalized to control (1),MDA−MB−231 cells [3]; representative blot Figure S26D,0.2888
same,Cleaved BID/GAPDH normalized to control (1),MDA−MB−231 cells [3]; representative blot Figure S26E,1.33
same,Procaspase 9/GAPDH normalized to control (1),MDA−MB−231 cells [3]; representative blot Figure S26F,0.2675
same,Procaspase 3/GAPDH normalized to control (1),MDA−MB−231 cells [3]; representative blot Figure S26G,0.4093
same,PARP-1/GAPDH normalized to control (1),MDA−MB−231 cells [3]; representative blot Figure S26H,0.5717
same,Beclin1/GAPDH normalized to control (1),MDA−MB−231 cells [3]; representative blot Figure S27A,1.408
same,ATG5/GAPDH normalized to control (1),MDA−MB−231 cells [3]; representative blot Figure S27B,1.129
same,ATG16L1/GAPDH normalized to control (1),MDA−MB−231 cells [3]; representative blot Figure S27C,0.9987
same,ATG9A/GAPDH normalized to control (1),MDA−MB−231 cells [3]; representative blot Figure S27D,0.774
same,ATG4B/GAPDH normalized to control (1),MDA−MB−231 cells [3]; representative blot Figure S27E,1.581
same,LC3B/GAPDH normalized to control (1),MDA−MB−231 cells [3]; representative blot Figure S27F,0.6076
same,β-actin/GAPDH normalized to control (1),HT29 cells [4]; representative blot Figure S28A,0.8943
same,β-tubulin/GAPDH normalized to control (1),HT29 cells [4]; representative blot Figure S28B,0.8137
same,α-tubulin/GAPDH normalized to control (1),HT29 cells [4]; representative blot Figure S28C,0.4054
same,p-AKT/AKT/GAPDH normalized to control (1),HT29 cells [4]; representative blot Figure S29A,1.011
same,p-ERK/ERK/GAPDH normalized to control (1),HT29 cells [4]; representative blot Figure S29B,1.229
same,p53/GAPDH normalized to control (1),HT29 cells [4]; representative blot Figure S29C,4.543
same,p21/GAPDH normalized to control (1),HT29 cells [4]; representative blot Figure S29D,3.293
same,Bax/GAPDH normalized to control (1),HT29 cells [4]; representative blot Figure S30A,3.388
same,Bcl2/GAPDH normalized to control (1),HT29 cells [4]; representative blot Figure S30B,1.194
same,Cyt C/GAPDH normalized to control (1),HT29 cells [4]; representative blot Figure S30C,7.091
same,Procaspase 8/GAPDH normalized to control (1),HT29 cells [4]; representative blot Figure S30D,0.9474
same,Cleaved BID/GAPDH normalized to control (1),HT29 cells [4]; representative blot Figure S30E,2.711
same,Procaspase 9/GAPDH normalized to control (1),HT29 cells [4]; representative blot Figure S30F,0.5927
same,Cleaved caspase 3/GAPDH normalized to control (1),HT29 cells [4]; [5],1.017
same,Procaspase 3/GAPDH normalized to control (1),HT29 cells [4]; [5],1.141
same,Cleaved PARP-1/GAPDH normalized to control (1),HT29 cells [4]; [6],2.239
same,PARP-1/GAPDH normalized to control (1),HT29 cells [4]; [6],0.6475
same,Beclin1/GAPDH normalized to control (1),HT29 cells [4]; representative blot Figure S31A,8.006
same,ATG5/GAPDH normalized to control (1),HT29 cells [4]; representative blot Figure S31B,0.3102
same,ATG16L1/GAPDH normalized to control (1),HT29 cells [4]; representative blot Figure S31C,4.093
same,ATG9A/GAPDH normalized to control (1),HT29 cells [4]; representative blot Figure S31D,1.203
same,ATG4B/GAPDH normalized to control (1),HT29 cells [4]; representative blot Figure S31E,0.9049
same,LC3B/GAPDH normalized to control (1),HT29 cells [4]; representative blot Figure S31F,2.232
